The source of these data is patent US9314510B2, “Human laminin α2 chain LG3 domain and active peptides promoting cell adhesion, spreading, migration, and neurite outgrowth” (SNU R&DB Foundation, priority 2011, dated 2016).

In series [1] the test system is PC12 cells. To be noted: cited from earlier work.
In series [2] the test system is PC12 cells. The experiment in a line: Effect of PLC inhibitor on cell adhesion and spreading. Format: cell-based, rat. Particulars: 0.5 or 1.0 μM.
For series [3], the system named is PC12 cells. The experiment in a line: Effect of PKC inhibitor pretreatment on cell adhesion, spreading, migration and stress fiber formation. Format: cell-based, rat. Particulars: Gö6976 2.5 or 5.0 nM, rottlerin 1 or 5 μM, 15 min. As to the method:
PC12 cells were pretreated with Gö6976 or rottlerin for 15 min at 37° C. and seeded on laminin-, rLG3-, or Ln2-LG3-P2-coated plates and then, cell adhesion, spreading, migration, and stress fiber formation were observed. To observe cell adhesion, the pretreated PC12 cells were incubated for 1 h and to observe cell spreading and stress fiber formation, the pretreated PC12 cells were incubated on the coated plates for 3 h. In addition, to observe cell migration, the pretreated PC12 cells were incubated on the coated plates for 24 h.

Series [4] has as its system fibroblasts. Particulars: 1-3 μM; cited from earlier work.
In series [5] the target is PKCδ (Homo sapiens, UniProt Q05655). Particulars: PKCδ inhibitor; cited from earlier work.
Series [6] relates to PC12 cells. The experiment in a line: Effect of rottlerin on stress fibers of already spread cells. Format: cell-based, rat. Particulars: 2.5 h incubation, then 5 μM for 30 min. As to the method: PC12 cells were seeded on glass slide chambers coated with laminin, rLG3, or Ln2-LG3-P2. After 2.5 h incubation, the cells were treated with 5 μM rottlerin for 30 min and immunostained with rhodamine-phalloidin.

For series [7], the system named is FAK Tyr-397. The experiment in a line: Effect of PKC inhibitors on FAK phosphorylation at Tyr-397. Format: cell-based, rat. Particulars: PC12 cells pretreated with 5 nM Gö6976 or 5 μM rottlerin 15 min, laminin, rLG3, Ln2-LG3-P2 plates. As to the method: PC12 cells were pretreated with 5 nM Gö6976 or 5 μM rottlerin for 15 min at 37° C. and seeded on laminin-, rLG3-, or Ln2-LG3-P2-coated plates for 15 min in serum-free medium.

The test system of series [8] is PC12 cells. The series can be described thus: Cell viability with PKC inhibitors. To be noted: at the concentrations used and duration of treatment.
In series [9] the test system is PC12 cells. The experiment in a line: Effect of Rho-kinase inhibitor on stress fibers. Format: cell-based, rat. Particulars: cells seeded 1 h, then 10 μM for 2 h. The method, then:
PC12 cells were seeded on glass slide chambers coated with laminin, rLG3, or Ln2-LG3-P2 for 1 h. The cells were treated with […] Y27632, a selective inhibitor of Rho-associated protein kinase, for 2 h in serum-free medium and immunostained with rhodamine-phalloidin.

Series [10] concerns PKCα/β. Particulars: PKCα/β inhibitor; cited from earlier work.

Chain of PKCδ (Q05655 whole entry): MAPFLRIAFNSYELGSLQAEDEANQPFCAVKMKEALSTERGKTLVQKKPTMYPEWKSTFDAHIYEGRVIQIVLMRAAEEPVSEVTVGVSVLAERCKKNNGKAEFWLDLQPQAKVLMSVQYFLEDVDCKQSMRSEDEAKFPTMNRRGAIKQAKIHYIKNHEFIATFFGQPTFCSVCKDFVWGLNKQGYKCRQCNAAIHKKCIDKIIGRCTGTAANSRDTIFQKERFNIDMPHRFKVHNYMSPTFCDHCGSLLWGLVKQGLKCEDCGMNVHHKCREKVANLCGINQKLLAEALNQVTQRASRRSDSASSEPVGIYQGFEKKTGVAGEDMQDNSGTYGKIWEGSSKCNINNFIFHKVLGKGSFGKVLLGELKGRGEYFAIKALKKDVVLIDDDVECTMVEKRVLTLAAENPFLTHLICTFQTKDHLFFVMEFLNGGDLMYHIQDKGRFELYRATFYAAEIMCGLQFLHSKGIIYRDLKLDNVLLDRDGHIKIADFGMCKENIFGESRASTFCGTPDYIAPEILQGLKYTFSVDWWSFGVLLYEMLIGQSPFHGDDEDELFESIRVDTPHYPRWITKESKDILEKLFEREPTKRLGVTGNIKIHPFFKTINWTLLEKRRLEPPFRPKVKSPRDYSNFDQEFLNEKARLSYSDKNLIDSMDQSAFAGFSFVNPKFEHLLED

In the case of `COc1ccc2c(c1)CC[C@@H]1[C@@H]2CC[C@]2(C)[C@@H](NCCCCCCN3C(=O)C=CC3=O)CC[C@@H]12` [U73122], the “α1β1 integrin-mediated PC12 cell adhesion” value in series [1] was “reduced”. For the same compound, in series [2] (15 min, 1 h), the “cell adhesion to rLG3 and Ln2-LG3-P2 after inhibitor pretreatment” value is recorded as “reduced by U73122 in a dose-dependent manner”. In addition, in series [2] (15 min, 3 h), the “cell spreading to rLG3 and Ln2-LG3-P2 after inhibitor pretreatment” value was “reduced”. Also, the “cell adhesion (as printed in legend of FIG. 15B)” value in [2] (rLG3 and Ln2-LG3-P2 plates, 3 h) is listed as “reduced by U73122 in a dose-dependent manner”.

`CC(=O)c1c(O)c(C)c(O)c(Cc2c(O)c3c(c(C(=O)/C=C/c4ccccc4)c2O)OC(C)(C)C=C3)c1O` [rottlerin]: in series [3] (1 h), the “adhesion of PC12 cells to laminin, rLG3, and Ln2-LG3-P2 after inhibitor pretreatment” value was “significantly impaired”. Further, in [3] (3 h), the “spreading of PC12 cells to laminin, rLG3, and Ln2-LG3-P2 after inhibitor pretreatment” value is reported as “significantly impaired”; the “stress fiber formation of PC12 cells to laminin, rLG3, and Ln2-LG3-P2 after inhibitor pretreatment” value is on record as “significantly impaired”. For the same compound, in series [3] (24 h), the “migration of PC12 cells to laminin, rLG3, and Ln2-LG3-P2 after inhibitor pretreatment” value is listed as “significantly impaired”. Moreover, the “stress fiber formation of fibroblasts pre-spread on fibronectin” value in series [4] was “does not impair stress fiber formation”. The IC50 in series [5] is 3000 to 6000 nM. Further, the “stress fiber formation of PC12 cells already spread on laminin, rLG3, and Ln2-LG3-P2” value in series [6] is listed as “did not interfere with stress fiber formation”. For the same compound, the “level of FAK phosphorylation at Tyr-397” value in series [7] is reported as “reduced”. In addition, in series [8], the cell viability result is recorded as “did not affect cell viability”.

With `C[C@@H](N)[C@H]1CC[C@H](C(=O)Nc2ccncc2)CC1` [Y27632], the “stress fibers of PC12 cells to laminin, rLG3, and Ln2-LG3-P2” value in series [9] is “completely disassembled stress fibers”.

As for `Cn1c2ccccc2c2c3c(c4c5ccccc5n(CCC#N)c4c21)CNC3=O` [Gö6976], in series [3] (3 h), the “spreading of PC12 cells to laminin, rLG3, and Ln2-LG3-P2 after inhibitor pretreatment” value was “not with Gö6976 significantly impaired”. In series [10], the IC50 is 2.3 nM. Besides, the “level of FAK phosphorylation at Tyr-397” value in series [7] is recorded as “did not affect”. Further, the cell viability result in series [8] is “did not affect cell viability”.

What is called IC50 is the concentration that gives 50% inhibition.
